Among the data in PubChem BioAssay AID248 (DTP/NCI, 2004) are T/C values, retold here.

The test system of this test is L1210 leukemia ip in BDF1 mice, survival T/C. Put plainly: NCI In Vivo Anticancer Drug Screen. Data for tumor model L1210 Leukemia (intraperitoneal) in B6D2F1 (BDF1) mice. The note with it: higher = longer survival. Put shortly: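 Transplanted-tumor mice were given test agent; controls received vehicle only. Survival readings from the two groups were divided (treated over control).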

Setting [1] is: endpoint: mean survival time, dose: 100.0 mg/kg/injection, schedule: Q01DX001 (ip), vehicle: saline.
Where [2] appears, read: endpoint: mean survival time, dose: 100.0 mg/kg/injection, schedule: Q04DX003 (ip), vehicle: saline.
The mark [3] stands for this setting: endpoint: mean survival time, dose: 200.0 mg/kg/injection, schedule: Q01DX001 (ip), vehicle: saline.
[4] abbreviates: endpoint: mean survival time, dose: 200.0 mg/kg/injection, schedule: Q04DX003 (ip), vehicle: saline.
Setting [5] is: endpoint: mean survival time, dose: 400.0 mg/kg/injection, schedule: Q01DX001 (ip), vehicle: saline.
[6] abbreviates: endpoint: mean survival time, dose: 100.0 mg/kg/injection, schedule: Q01DX009 (ip), vehicle: saline with Tween-80.
Setting [7] is: endpoint: mean survival time, dose: 100.0 mg/kg/injection, schedule: Q04DX003 (ip), vehicle: saline with Tween-80.
Where [8] appears, read: endpoint: mean survival time, dose: 200.0 mg/kg/injection, schedule: Q01DX009 (ip), vehicle: saline with Tween-80.
[9] abbreviates: endpoint: mean survival time, dose: 200.0 mg/kg/injection, schedule: Q04DX003 (ip), vehicle: saline with Tween-80.
Setting [10] is: endpoint: mean survival time, dose: 400.0 mg/kg/injection, schedule: Q04DX003 (ip), vehicle: saline with Tween-80.
The mark [11] stands for this setting: endpoint: mean survival time, dose: 50.0 mg/kg/injection, schedule: Q01DX001 (ip), vehicle: carboxymethylcellulose (CMC).
The mark [12] stands for this setting: endpoint: mean survival time, dose: 100.0 mg/kg/injection, schedule: Q01DX001 (ip), vehicle: carboxymethylcellulose (CMC).

Where “and” joins values, the source holds several entries; their conditions need not be identical. Equal entries are not always repeated. Inconclusive results and toxic doses are left out.

`O=C1C2CCCCC2C(=O)N1O` (stereo unspecified): the T/C is, setting by setting: under setting [1], 94 % of control; under setting [2], 102 % of control; under setting [3], 92 % of control; under setting [4], 96 % of control; under setting [5], 94 % of control; (endpoint: mean survival time, dose: 400.0 mg/kg/injection, schedule: Q04DX003 (ip), vehicle: saline) 103 % of control.

With `O=c1nc(NC(=S)Nc2ccn(C3OC(CO)C(O)C3O)c(=O)n2)ccn1C1OC(CO)C(O)C1O` (stereo unspecified), the T/C reads like this: (endpoint: mean survival time, dose: 50.0 mg/kg/injection, schedule: Q01DX001 (ip), vehicle: other) 104 % of control; (endpoint: mean survival time, dose: 50.0 mg/kg/injection, schedule: Q01DX001 (ip), vehicle: water) 103 % of control and 106 % of control and 114 % of control; (endpoint: mean survival time, dose: 100.0 mg/kg/injection, schedule: Q01DX001 (ip), vehicle: other) 110 % of control; (endpoint: mean survival time, dose: 100.0 mg/kg/injection, schedule: Q01DX001 (ip), vehicle: water) 106 % of control; (endpoint: mean survival time, dose: 100.0 mg/kg/injection, schedule: Q01DX005 (ip), vehicle: saline) 168 % of control and 188 % of control; (endpoint: mean survival time, dose: 200.0 mg/kg/injection, schedule: Q01DX001 (ip), vehicle: other) 109 % of control and 116 % of control. In addition, the T/C under setting [3] was 158 % of control; the T/C (endpoint: mean survival time, dose: 200.0 mg/kg/injection, schedule: Q01DX005 (ip), vehicle: saline) is 206 % of control and 218 % of control; the T/C (endpoint: mean survival time, dose: 400.0 mg/kg/injection, schedule: Q01DX001 (ip), vehicle: other) is 193 % of control; the T/C under setting [5] is 217 % of control; the T/C (endpoint: mean survival time, dose: 400.0 mg/kg/injection, schedule: Q01DX001 (ip), vehicle: water) was 171 % of control and 215 % of control; the T/C (endpoint: mean survival time, dose: 600.0 mg/kg/injection, schedule: Q01DX001 (ip), vehicle: other) was 163 % of control. Further, the T/C (endpoint: mean survival time, dose: 800.0 mg/kg/injection, schedule: Q01DX001 (ip), vehicle: saline) was 452 % of control; the T/C (endpoint: mean survival time, dose: 800.0 mg/kg/injection, schedule: Q01DX001 (ip), vehicle: water) is 196 % of control and 177 % of control and 361 % of control; the T/C (endpoint: mean survival time, dose: 1600.0 mg/kg/injection, schedule: Q01DX001 (ip), vehicle: water) is 368 % of control; the T/C (endpoint: median survival time, dose: 12.5 mg/kg/injection, schedule: Q03HX024 (ip), vehicle: saline) was 180 % of control; the T/C (endpoint: median survival time, dose: 25.0 mg/kg/injection, schedule: Q03HX024 (ip), vehicle: saline) was 180 % of control; the T/C (endpoint: median survival time, dose: 50.0 mg/kg/injection, schedule: Q03HX024 (ip), vehicle: saline) is 295 % of control. Also, the T/C was 190 % of control (endpoint: median survival time, dose: 100.0 mg/kg/injection, schedule: Q01DX009 (ip), vehicle: saline); 104 % of control (endpoint: median survival time, dose: 200.0 mg/kg/injection, schedule: Q01DX001 (oral), vehicle: saline); 152 % of control (endpoint: median survival time, dose: 200.0 mg/kg/injection, schedule: Q01DX009 (ip), vehicle: saline); 195 % of control (endpoint: median survival time, dose: 200.0 mg/kg/injection, schedule: Q04DX003 (ip), vehicle: saline); 185 % of control (endpoint: median survival time, dose: 400.0 mg/kg/injection, schedule: Q01DX001 (ip), vehicle: saline); 104 % of control (endpoint: median survival time, dose: 400.0 mg/kg/injection, schedule: Q01DX001 (oral), vehicle: saline). Also, the T/C by setting is: (endpoint: median survival time, dose: 400.0 mg/kg/injection, schedule: Q04DX003 (ip), vehicle: saline) 233 % of control; (endpoint: median survival time, dose: 800.0 mg/kg/injection, schedule: Q01DX001 (ip), vehicle: saline) 233 % of control; (endpoint: median survival time, dose: 800.0 mg/kg/injection, schedule: Q01DX001 (oral), vehicle: saline) 100 % of control; (endpoint: median survival time, dose: 800.0 mg/kg/injection, schedule: Q04DX003 (ip), vehicle: saline) 342 % of control; (endpoint: median survival time, dose: 1600.0 mg/kg/injection, schedule: Q01DX001 (ip), vehicle: saline) 204 % of control.

Consider `CCCN(CCC)/N=N/c1nc[nH]c1C(N)=O`, for which the T/C is 95 % of control (endpoint: mean survival time, dose: 100.0 mg/kg/injection, schedule: Q01DX001 (ip), vehicle: saline with Tween-80); 97 % of control under setting [6]; 101 % of control under setting [7]; 98 % of control (endpoint: mean survival time, dose: 200.0 mg/kg/injection, schedule: Q01DX001 (ip), vehicle: saline with Tween-80); 106 % of control under setting [8]; 104 % of control under setting [9]. Further, the T/C by setting is: (endpoint: mean survival time, dose: 400.0 mg/kg/injection, schedule: Q01DX001 (ip), vehicle: saline with Tween-80) 113 % of control; under setting [10], 112 % of control.

For the compound `Nc1cc(Cl)c2cccnc2c1O`, the T/C is 88 % of control (endpoint: mean survival time, dose: 50.0 mg/kg/injection, schedule: Q04DX003 (ip), vehicle: saline with Tween-80); 98 % of control (endpoint: mean survival time, dose: 75.0 mg/kg/injection, schedule: Q01DX001 (ip), vehicle: saline); 100 % of control under setting [7]; 96 % of control (endpoint: mean survival time, dose: 150.0 mg/kg/injection, schedule: Q01DX001 (ip), vehicle: saline).

`NC(=O)c1ccccc1NC(=O)Nc1ccc([N+](=O)[O-])cc1Cl`: the T/C reads like this: under setting [6], 98 % of control; under setting [7], 95 % of control; under setting [8], 102 % of control; under setting [9], 96 % of control; (endpoint: mean survival time, dose: 400.0 mg/kg/injection, schedule: Q01DX009 (ip), vehicle: saline with Tween-80) 98 % of control; under setting [10], 95 % of control.

`NC(=S)N/N=C/c1cc2c(cc1[N+](=O)[O-])OCO2`: the T/C under setting [11] is 98 % of control; the T/C under setting [12] was 101 % of control; the T/C (endpoint: mean survival time, dose: 200.0 mg/kg/injection, schedule: Q01DX001 (ip), vehicle: carboxymethylcellulose (CMC)) is 93 % of control.

With `COc1cc(/C(C)=C2\SC(=O)NC2=O)ccc1O`, the T/C reads like this: under setting [1], 106 % of control; under setting [3], 95 % of control; under setting [5], 98 % of control.

Consider `OC(Cc1cc(CC(O)(C(F)(F)F)C(F)(F)F)n(-c2ccccc2)n1)(C(F)(F)F)C(F)(F)F`, for which the T/C is 97 % of control under setting [7], 97 % of control under setting [9] and 95 % of control under setting [10].

Consider `O=C1C(Br)=C(Br)c2ccccc21`, for which the T/C by setting is: under setting [11], 100 % of control; under setting [12], 99 % of control.

Turning to `CCCCNS(=O)(=O)c1ccc(OC)c(N)c1`, the T/C (endpoint: mean survival time, dose: 100.0 mg/kg/injection, schedule: Q01DX009 (ip), vehicle: Klucel (hydroxypropylcellulose) (HPC)) was 98 % of control; the T/C (endpoint: mean survival time, dose: 200.0 mg/kg/injection, schedule: Q01DX009 (ip), vehicle: Klucel (hydroxypropylcellulose) (HPC)) was 104 % of control; the T/C (endpoint: mean survival time, dose: 400.0 mg/kg/injection, schedule: Q01DX009 (ip), vehicle: Klucel (hydroxypropylcellulose) (HPC)) was 97 % of control.

With `CCOC(=N)CC(=N)OCC`, the T/C (endpoint: mean survival time, dose: 100.0 mg/kg/injection, schedule: Q01DX009 (ip), vehicle: water) was 96 % of control; the T/C (endpoint: mean survival time, dose: 100.0 mg/kg/injection, schedule: Q04DX003 (ip), vehicle: water) is 97 % of control; the T/C (endpoint: mean survival time, dose: 200.0 mg/kg/injection, schedule: Q01DX009 (ip), vehicle: water) is 101 % of control; the T/C (endpoint: mean survival time, dose: 200.0 mg/kg/injection, schedule: Q04DX003 (ip), vehicle: water) is 93 % of control; the T/C (endpoint: mean survival time, dose: 400.0 mg/kg/injection, schedule: Q01DX009 (ip), vehicle: water) was 97 % of control; the T/C (endpoint: mean survival time, dose: 400.0 mg/kg/injection, schedule: Q04DX003 (ip), vehicle: water) was 97 % of control.

Consider `NOCc1csc(Nc2ccccc2)n1`, for which the T/C was 100 % of control under setting [2] and 88 % of control under setting [4].

For `CCCCNCCCC(C(=O)O)c1ccccc1` (stereo unspecified), the T/C is 100 % of control (endpoint: mean survival time, dose: 75.0 mg/kg/injection, schedule: Q01DX001 (ip), vehicle: carboxymethylcellulose (CMC)); 90 % of control (endpoint: mean survival time, dose: 150.0 mg/kg/injection, schedule: Q01DX001 (ip), vehicle: carboxymethylcellulose (CMC)); 90 % of control (endpoint: mean survival time, dose: 300.0 mg/kg/injection, schedule: Q01DX001 (ip), vehicle: carboxymethylcellulose (CMC)).

For `CN(C)c1ncnc2c1nnn2C1OC(CO)C(O)C1O` (stereo unspecified), the T/C (endpoint: mean survival time, dose: 178.0 mg/kg/injection, schedule: Q01DX001 (ip), vehicle: saline) is 106 % of control; the T/C (endpoint: mean survival time, dose: 267.0 mg/kg/injection, schedule: Q01DX001 (ip), vehicle: saline) was 106 % of control; the T/C under setting [5] is 117 % of control.
